Experimental data published in patent US5217960A, “Erythromycin derivatives” (priority 1991, dated 1993).
Converted amounts (≈) assume the structure as drawn. Like-named read-outs stand apart in the source and are kept apart here.

Columns and labels:
Type in all cases: cell-based
[1] = test system: STAPHYLOCOCCUS AUREUS ATCC 6538P; test: In vitro antibacterial activity, agar dilution MIC; details: ATCC6538P, 24 h
[2] = test system: STAPHYLOCOCCUS AUREUS A5177; test: In vitro antibacterial activity, agar dilution MIC
STAPHYLOCOCCUS AUREUS 45 = test: In vitro antibacterial activity, agar dilution MIC
[3] = test system: STAPHYLOCOCCUS AUREUS 642A; test: In vitro antibacterial activity, agar dilution MIC; details: S. aureus 642A, BHI agar, 35-37° C., 20 to 24 hours, read-out: MIC
[4] = test system: STAPHYLOCOCCUS AUREUS NCTC 10649; test: In vitro antibacterial activity, agar dilution MIC
[5] = test system: STAPHYLOCOCCUS AUREUS 1775; test: In vitro antibacterial activity, agar dilution MIC; details: S. aureus 1775, BHI agar, 35-37° C., 20 to 24 hours, read-out: MIC
[6] = test system: STAPHYLOCOCCUS EPIDERMIDIS 3519; test: microbe, parasite or virus in culture
EN[…] ATCC 8043 = test: In vitro antibacterial activity, agar dilution MIC; details: Enterococcus faecium, ATCC8043, 24 h
Method: (§1) Representative compounds of the present invention were assayed in vitro for antibacterial activity as follows: Twelve petri dishes containing successive aqueous dilutions of the test compound mixed with 10 ml of sterilized Brain Heart Infusion (BHI) agar (Difco 0418-01-5) were prepared. Each plate was inoculated with 1:100 (or 1:10 for slow-growing strains, such as Micrococcus and Streptococcus) dilutions of up to 32 different microorganisms, using a Steers replicator block. The inoculated plates were incubated at 35°-37° C. for 20 to 24 hours. In addition, a control plate, using BHI agar containing no test compound, was prepared and incubated at the beginning and end of each test.
(§2) An additional plate containing a compound having known susceptibility patterns for the organisms being tested and belonging to the same antibiotic class as the test compound was also prepared and incubated as a further control, as well as to provide test-to-test comparability. Erythromycin A was used for this purpose.
(§3) After incubation, each disk was read. The minimum inhibitory concentration (MIC) was defined as the lowest concentration of drug yielding no growth, a slight haze, or sparsely isolated colonies on the inoculum spot as compared to the growth control. The results of this assay, shown below in Tables 1 and 2, support the conclusion that the compounds of the invention are effective antibacterial agents.

M[…] ATCC 4698 = test: In vitro antibacterial activity, agar dilution MIC; details: Micrococcus luteus, ATCC4698, 24 h
Method: as §1, §2, §3

M[…] ATCC 9341 = test: In vitro antibacterial activity, agar dilution MIC; details: Micrococcus luteus, ATCC9341, 24 h
Method: as §1, §2, §3

[7] = test system: PSEUDOMONAS AERUGINOSA K799/61; test: In vitro antibacterial activity, agar dilution MIC
Method: as §1, §2, §3

[8] = test system: STREPTOCOCCUS BOVIS A5169; test: In vitro antibacterial activity, agar dilution MIC; details: 24 h
[9] = test system: STREPTOCOCCUS PYOGENES 930 CONST; test: In vitro antibacterial activity, agar dilution MIC; details: S. pyogenes 930 CONST, BHI agar, 35-37° C., 20 to 24 hours, read-out: MIC
[10] = test system: STREPTOCOCCUS PYOGENES 2548 INDUC; test: In vitro antibacterial activity, agar dilution MIC; details: 24 h
ESCHERICHIA COLI JUHL = test: microbe, parasite or virus in culture; details: E. coli JUHL, BHI agar, 35-37° C., 20 to 24 hours, read-out: MIC
ESCHERICHIA COLI SS = test: In vitro antibacterial activity, agar dilution MIC
ESCHERICHIA COLI DC-2 = test: In vitro antibacterial activity, agar dilution MIC
ESCHERICHIA COLI H560 = test: In vitro antibacterial activity, agar dilution MIC
ESCHERICHIA COLI KNK 437 = test: microbe, parasite or virus in culture; details: E. coli KNK 437, BHI agar, 35-37° C., 20 to 24 hours
[11] = test system: ENTEROBACTER AEROGENES ATCC 13048; test: In vitro antibacterial activity, agar dilution MIC; details: Klebsiella aerogenes
[12] = test system: KLEBSIELLA PNEUMONIAE ATCC 8045; test: In vitro antibacterial activity, agar dilution MIC
[13] = test system: PROVIDENCIA STUARTII CMX 640; test: microbe, parasite or virus in culture; details: P. stuartii CMX 640, BHI agar, 35-37° C., 20 to 24 hours
[14] = test system: PSEUDOMONAS AERUGINOSA BMH10; test: In vitro antibacterial activity, agar dilution MIC
[15] = test system: PSEUDOMONAS AERUGINOSA A5007; test: In vitro antibacterial activity, agar dilution MIC; details: P. aeruginosa A5007, BHI agar, 35-37° C., 20 to 24 hours
[16] = test system: PSEUDOMONAS AERUGINOSA K799/WT; test: In vitro antibacterial activity, agar dilution MIC; details: P. aeruginosa K799/WT, BHI agar, 35-37° C., 20 to 24 hours
PSEUDOMONAS CEPACIA 296I = test: In vitro antibacterial activity, agar dilution MIC; details: Burkholderia cepacia; P. cepacia 296I; BHI agar, 35-37° C., 20 to 24 hours; read-out: MIC
[17] = test system: ACINETOBACTER CALCOACETICUS CMX 669; test: In vitro antibacterial activity, agar dilution MIC; details: A. calcoaceticus CMX 669, BHI agar, 35-37° C., 20 to 24 hours
[18] = test system: STAPHYLOCOCCUS AUREUS CMX 553; test: In vitro antibacterial activity, agar dilution MIC; details: S. aureus CMX 553, BHI agar, 35-37° C., 20 to 24 hours, read-out: MIC
STR[…] 508 = test: In vitro antibacterial activity, agar dilution MIC; details: Streptococcus agalactiae, 24 h
Method: as §1, §2
(§4) After incubation, each disk was read. The minimum inhibitory concentration (MIC) was defined as the lowest concentration of drug yielding no growth, a slight haze, or sparsely isolated colonies on the inoculum spot as compared to the growth control.

STR[…] EES61 = test: In vitro antibacterial activity, agar dilution MIC; details: Streptococcus pyogenes, 24 h
Method: as §1, §2, §4

Row | Compound | MIC [1] [µg/mL] | MIC [5] [µg/mL] | MIC (EN[…] ATCC 8043) [µg/mL] | MIC (M[…] ATCC 4698) [µg/mL] | MIC (M[…] ATCC 9341) [µg/mL] | MIC [9] [µg/mL] | MIC [10] [µg/mL] | MIC (ESCHERICHIA COLI JUHL) [µg/mL] | MIC (ESCHERICHIA COLI KNK 437) [µg/mL] | MIC [13] [µg/mL] | MIC [15] [µg/mL] | MIC [16] [µg/mL] | MIC (PSEUDOMONAS CEPACIA 296I) [µg/mL] | MIC [17] [µg/mL] | other results
1 | CC[C@H]1OC(=O)[C@H](C)[C@@H](O[C@H]2C[C@@](C)(OC)[C@@H](O)[C@H](C)O2)[C@H](C)[C@@H](O[C@@H]2O[C@H](C)C[C@H](N(C)C)[C@H]2O)[C@](C)(O)C[C@@H](C)[C@@H](N(C)C)[C@H](C)[C@@H](O)[C@@]12CO2 [Compound 8, (9R)-9-deoxo-9-(N,N-dimethylamino)-12,21-epoxyerythromycin A] | 0.78 (≈ 1.02 µM) | > 100 | 0.02 (≈ 0.0263 µM) | 0.1 (≈ 0.131 µM) | 0.1 (≈ 0.131 µM) | > 100 | 6.2 (≈ 8.15 µM) | 100 (≈ 131 µM) | 50 (≈ 65.7 µM) | > 100 | > 100 | > 100 | > 100 | 12.5 (≈ 16.4 µM) | MIC ([2]; S. aureus A5177, BHI agar, 35-37° C., 20 to 24 hours, read-out: MIC): 50 µg/mL (≈ 65.7 µM); MIC (STAPHYLOCOCCUS AUREUS 45; S. aureus 45, BHI agar, 35-37° C., 20 to 24 hours, read-out: MIC): 0.78 µg/mL (≈ 1.02 µM); MIC [3]: 1.56 µg/mL (≈ 2.05 µM); MIC ([4]; NCTC10649, S. aureus NCTC 10649, BHI agar, 35-37° C., 20 to 24 hours, read-out: MIC): 0.78 µg/mL (≈ 1.02 µM); MIC ([6]; 24 h): 0.39 µg/mL (≈ 0.512 µM); MIC ([7]; P. aeruginosa K799/61, BHI agar, 35-37° C., 20 to 24 hours, read-out: MIC): 12.5 µg/mL (≈ 16.4 µM); MIC [8]: 0.02 µg/mL (≈ 0.0263 µM); MIC (ESCHERICHIA COLI SS; E. coli SS, BHI agar, 35-37° C., 20 to 24 hours, read-out: MIC): 0.39 µg/mL (≈ 0.512 µM); MIC (ESCHERICHIA COLI DC-2; E. coli DC-2, BHI agar, 35-37° C., 20 to 24 hours, read-out: MIC): 50 µg/mL (≈ 65.7 µM); MIC (ESCHERICHIA COLI H560; 24 h): 25 µg/mL (≈ 32.9 µM); MIC ([11]; ATCC13048, E. aerogenes ATCC 13048, BHI agar, 35-37° C., 20 to 24 hours, read-out: MIC): > 100 µg/mL; MIC ([12]; ATCC8045, K. pneumoniae ATCC 8045, BHI agar, 35-37° C., 20 to 24 hours, read-out: MIC): 100 µg/mL (≈ 131 µM); MIC ([14]; 24 h): > 100 µg/mL
2 | CC[C@H]1OC(=O)[C@H](C)[C@@H](O[C@H]2C[C@@](C)(OC)[C@@H](O)[C@H](C)O2)[C@H](C)[C@@H](O[C@@H]2O[C@H](C)C[C@H](N(C)C)[C@H]2O)[C@](C)(O)C[C@@H](C)[C@@H](N(C)C)[C@H](C)[C@@H](O)[C@@]1(O)CN(C)C [Compound 18, (9R)-9,21-di-(N,N-dimethylamino)-9-deoxoerythromycin A] | 1.56 (≈ 1.94 µM) | > 100 | 0.39 (≈ 0.484 µM) | 0.78 (≈ 0.968 µM) | 0.2 (≈ 0.248 µM) | > 100 | 25 (≈ 31 µM) | 12.5 (≈ 15.5 µM) | 12.5 (≈ 15.5 µM) | > 100 | > 100 | > 100 | > 100 | 12.5 (≈ 15.5 µM) | MIC ([2]; 24 h): 25 µg/mL (≈ 31 µM); MIC (STAPHYLOCOCCUS AUREUS 45; 24 h): 1.56 µg/mL (≈ 1.94 µM); MIC ([4]; NCTC10649, 24 h): 1.56 µg/mL (≈ 1.94 µM); MIC [18]: 3.1 µg/mL (≈ 3.85 µM); MIC ([6]; S. epidermidis 3519, BHI agar, 35-37° C., 20 to 24 hours, read-out: MIC): 3.1 µg/mL (≈ 3.85 µM); MIC ([7]; 24 h): 1.56 µg/mL (≈ 1.94 µM); MIC (STR[…] 508): 0.2 µg/mL (≈ 0.248 µM); MIC (STR[…] EES61): 0.1 µg/mL (≈ 0.124 µM); MIC (ESCHERICHIA COLI SS; 24 h): 0.2 µg/mL (≈ 0.248 µM); MIC (ESCHERICHIA COLI DC-2; 24 h): 6.2 µg/mL (≈ 7.69 µM); MIC (ESCHERICHIA COLI H560; E. coli H560, BHI agar, 35-37° C., 20 to 24 hours, read-out: MIC): 3.1 µg/mL (≈ 3.85 µM); MIC ([11]; ATCC13048, 24 h): 25 µg/mL (≈ 31 µM); MIC ([12]; ATCC8045, 24 h): 6.2 µg/mL (≈ 7.69 µM); MIC ([14]; P. aeruginosa BMH10, BHI agar, 35-37° C., 20 to 24 hours, read-out: MIC): 100 µg/mL (≈ 124 µM)
